Experimental findings from patent US11780826B2 (Amgen Inc., priority 2017, dated 2023) are described below.

For the test, the system named is Bovine cardiac myofibrils. Nature of the test: In vitro model of dose-dependent myofibril ATPase modulation (AC1.4, pyruvate kinase/lactate dehydrogenase-coupled ATPase assay at pCa25). The class given is biochemical. Conditions: concentration at which ATPase activity was 1.4-fold higher than the bottom of the dose curve, mean of a minimum of two independent tests. Summed up:
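Bovine cardiac myofibrils, detergent-treated; 0.25-1.0 mg/ml. Buffer: K-PIPES 12 mM, MgCl2 2 mM, DTT 1 mM, BSA 0.1 mg/ml, pH 6.80, 22° C; Ca2+ set by EGTA/CaCl2. ATP 1 mM, NADH/PEP-coupled, A340. 4-parameter fit; n≥2.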
Molecule `N#CC1CN(S(=O)(=O)N2CCC[C@H](C(=O)N3CCC[C@@H]3C(=O)NCc3ccccc3F)C2)C1` [Example 684, 1-(((3S)-1-((3-cyano-1-azetidinyl)sulfonyl)-3-piperidinyl)carbonyl)-N-(2-fluorobenzyl)-D-prolinamide] displayed an AC1.4 of 5.1985 µM. Then `N#CC1CN(S(=O)(=O)c2cccc(C(=O)N3C[C@H](F)C[C@@H]3C(=O)NCc3ccc(C(F)(F)F)cc3)c2)C1` [Example 122, (4R)-1-((3-((3-cyano-1-azetidinyl)sulfonyl)phenyl)carbonyl)-4-fluoro-N-(4-(trifluoromethyl)benzyl)-D-prolinamide], with 0.1858 µM. In the case of `N#CC1CN(S(=O)(=O)N2CCC[C@H](C(=O)N3C[C@H](O)C[C@@H]3C(=O)NCc3ccc(C(F)(F)F)cc3)C2)C1` [Example 240, (2R,4R)-1-((S)-1-((3-cyanoazetidin-1-yl)sulfonyl)piperidine-3-carbonyl)-4-hydroxy-N-(4-(trifluoromethyl)benzyl)pyrrolidine-2-carboxamide] it was 0.5685 µM; in that of `O=C(N[C@@H](c1ccc(C(F)(F)F)cc1F)C1CC1)[C@H]1CCCN1C(=O)c1cccc(S(=O)(=O)C2CC2)c1` [Example 223, N-((R)-cyclopropyl(2-fluoro-4-(trifluoromethyl)phenyl)methyl)-1-(3-(cyclopropylsulfonyl)benzoyl)-D-prolinamide], 0.4842 µM; in that of `C[C@@H](NC(=O)[C@H]1CCCN1C(=O)[C@H]1CCCN(S(=O)(=O)N2CC(C#N)C2)C1)c1ccc(C(F)(F)F)cc1F` [Example 29, 1-(((3S)-1-((3-cyano-1-azetidinyl)sulfonyl)-3-piperidinyl)carbonyl)-N-((1R)-1-(2-fluoro-4-(trifluoromethyl)phenyl)ethyl)-D-prolinamide], 0.03155 µM. Then `C[C@@H](NC(=O)[C@H]1CCCN1C(=O)[C@H]1CCCN(S(=O)(=O)N2CC(C#N)C2)C1)c1ccc(F)cc1OC(F)F` [Example 698, 1-(((3S)-1-((3-cyano-1-azetidinyl)sulfonyl)-3-piperidinyl)carbonyl)-N-((1R)-1-(2-(difluoromethoxy)-4-fluorophenyl)ethyl)-D-prolinamide], with 5.5675 µM; and `O=C(N[C@@H](c1cc(F)c(Cl)cc1F)C1CC1)[C@H]1C[C@@H](O)CN1C(=O)c1cncc(C(F)(F)F)c1` [Example 641, (4R)-N-((R)-(4-chloro-2,5-difluorophenyl)(cyclopropyl)methyl)-4-hydroxy-1-((5-(trifluoromethyl)-3-pyridinyl)carbonyl)-D-prolinamide], with 4.262 µM. `N#CC1CN(S(=O)(=O)N2CCC[C@H](C(=O)N3CCC[C@@H]3C(=O)NCc3cc(F)cc(F)c3F)C2)C1` [Example 356, 1-(((3S)-1-((3-cyano-1-azetidinyl)sulfonyl)-3-piperidinyl)carbonyl)-N-(2,3,5-trifluorobenzyl)-D-prolinamide] displayed an AC1.4 of 1.0535 µM. In the case of `N#CC1CN(S(=O)(=O)N2CC[C@H](C(=O)N3CCC[C@@H]3C(=O)NCc3ccc(C(F)(F)F)cc3)C2)C1` [Example 648, 1-(((3S)-1-((3-cyano-1-azetidinyl)sulfonyl)-3-pyrrolidinyl)carbonyl)-N-(4-(trifluoromethyl)benzyl)-D-prolinamide] it was 4.421 µM; in that of `O=C(N[C@@H](c1cc(F)c(Cl)cc1F)C1COC1)[C@H]1C[C@H]2C[C@H]2N1C(=O)c1ccnc(C(F)(F)F)c1` [Example 171, (1R,3R,5R)-N-((R)-(4-chloro-2,5-difluorophenyl)(3-oxetanyl)methyl)-2-((2-(trifluoromethyl)-4-pyridinyl)carbonyl)-2-azabicyclo[3.1.0]hexane-3-carboxamide], 0.2934 µM. Then `COc1ccc(CNC(=O)[C@H]2CCCN2C(=O)[C@H]2CCCN(S(=O)(=O)N3CC(C#N)C3)C2)c(C)c1` [Example 614, 1-(((3S)-1-((3-cyano-1-azetidinyl)sulfonyl)-3-piperidinyl)carbonyl)-N-(4-methoxy-2-methylbenzyl)-D-prolinamide], with 3.8655 µM.

The molecule `CS(=O)(=O)c1ccnc(C(=O)N2CCCC[C@@H]2C(=O)N[C@@H](c2cc(F)c(Cl)cc2F)C2CC2)c1` [Example 159, (2R)-N-((R)-(4-chloro-2,5-difluorophenyl)(cyclopropyl)methyl)-1-((4-(methylsulfonyl)-2-pyridinyl)carbonyl)-2-piperidinecarboxamide] showed an AC1.4 of 0.2735 µM. Then `O=C(N[C@@H](c1ccc(C(F)(F)F)cc1F)C1CC1)[C@H]1CCCN1C(=O)c1cccc(C(F)(F)F)c1` [Example 252, N-((R)-cyclopropyl(2-fluoro-4-(trifluoromethyl)phenyl)methyl)-1-(3-(trifluoromethyl)benzoyl)-D-prolinamide], with 0.6066 µM; and `CS(=O)(=O)c1cncc(C(=O)N2CCCC[C@@H]2C(=O)N[C@@H](c2cc(F)c(Cl)cc2F)C2CC2)c1` [Example 292, (2R)-N-((R)-(4-chloro-2,5-difluorophenyl)(cyclopropyl)methyl)-1-((5-(methylsulfonyl)-3-pyridinyl)carbonyl)-2-piperidinecarboxamide], with 0.7577 µM. Turning to `Cc1cc(C(=O)N2[C@@H](C(=O)N[C@@H](c3cc(F)c(Cl)cc3F)C3COC3)C[C@H]3C[C@H]32)cc(C)n1` [Example 603, (1R,3R,5R)-N-((R)-(4-chloro-2,5-difluorophenyl)(3-oxetanyl)methyl)-2-((2,6-dimethyl-4-pyridinyl)carbonyl)-2-azabicyclo[3.1.0]hexane-3-carboxamide], the AC1.4 was determined as 3.6775 µM. In the case of `CS(=O)(=O)c1cc(C(=O)N2CCC[C@@H]2C(=O)N[C@@H](c2ccc(C(F)(F)F)cc2F)C2CC2)ccc1N` [Example 805, 1-(4-amino-3-(methylsulfonyl)benzoyl)-N-((R)-cyclopropyl(2-fluoro-4-(trifluoromethyl)phenyl)methyl)-D-prolinamide] it was 9.817 µM; in that of `O=C(N[C@@H](c1cc(F)c(Cl)cc1F)C1CC1)[C@H]1C[C@H]2C[C@H]2N1C(=O)c1cc(C2CC2)ccn1` [Example 713, (1R,3R,5R)-N-((R)-(4-chloro-2,5-difluorophenyl)(cyclopropyl)methyl)-2-((4-cyclopropyl-2-pyridinyl)carbonyl)-2-azabicyclo[3.1.0]hexane-3-carboxamide], 6.039 µM. Then `CCNc1ccc(C)cc1C(=O)N1[C@@H](C(=O)N[C@@H](c2ccc(C(F)(F)F)cc2F)C2COC2)C[C@H]2C[C@H]21` [Example 23, (1R,3R,5R)-2-(2-(ethylamino)-5-methylbenzoyl)-N-((R)-(2-fluoro-4-(trifluoromethyl)phenyl)(3-oxetanyl)methyl)-2-azabicyclo[3.1.0]hexane-3-carboxamide], with 0.0287 µM; and `N#CC1CN(S(=O)(=O)N2C[C@H]3C[C@@H]2[C@H](C(=O)N2CCC[C@@H]2C(=O)NCc2ccc(C(F)(F)F)cc2)C3)C1` [Example 172, 1-(((1R,4R,6R)-2-((3-cyano-1-azetidinyl)sulfonyl)-2-azabicyclo[2.2.1]hept-6-yl)carbonyl)-N-(4-(trifluoromethyl)benzyl)-D-prolinamide], with 0.2959 µM; and `CC[C@@H](NC(=O)[C@H]1CCCN1C(=O)c1cccc(S(=O)(=O)N(C)C)c1)c1ccc(Cl)c(F)c1` [Example 259, N-((1R)-1-(4-chloro-3-fluorophenyl)propyl)-1-(3-(dimethylsulfamoyl)benzoyl)-D-prolinamide], with 0.6372 µM. Then `CC(C)N(C)S(=O)(=O)c1cccc(C(=O)N2CCC[C@@H]2C(=O)NCc2ccc(C(F)(F)F)cc2)c1` [Example 315, 1-(3-(methyl(2-propanyl)sulfamoyl)benzoyl)-N-(4-(trifluoromethyl)benzyl)-D-prolinamide], with 0.8574 µM; and `N#CC1CN(S(=O)(=O)N2CCC[C@H](C(=O)N3CCC[C@@H]3C(=O)N[C@@H](c3ccc(C(F)(F)F)cc3)C3CC3)C2)C1` [Example 11, 1-(((3S)-1-((3-cyano-1-azetidinyl)sulfonyl)-3-piperidinyl)carbonyl)-N-((R)-cyclopropyl(4-(trifluoromethyl)phenyl)methyl)-D-prolinamide], with 0.0215 µM. `CCS(=O)(=O)c1cccc(C(=O)N2CCC[C@@H]2C(=O)N[C@@H](c2ccc(C(F)(F)F)cc2F)C2CC2)c1` [Example 212, N-((R)-cyclopropyl(2-fluoro-4-(trifluoromethyl)phenyl)methyl)-1-(3-(ethylsulfonyl)benzoyl)-D-prolinamide] gave an AC1.4 of 0.4557 µM. In the case of `C[C@@H](NC(=O)[C@H]1COCCN1C(=O)c1cccc(S(=O)(=O)N2CC(C#N)C2)c1)c1ccc(C(F)(F)F)cc1` [Example 19, (R)-4-(3-((3-cyanoazetidin-1-yl)sulfonyl)benzoyl)-N—((R)-1-(4-(trifluoromethyl)phenyl)ethyl)morpholine-3-carboxamide] it was 0.02495 µM; in that of `N#CC1CN(S(=O)(=O)c2cccc(C(=O)N3CCC[C@@H]3C(=O)NCc3cc(F)cc(F)c3)c2)C1` [Example 55, 1-(3-((3-cyano-1-azetidinyl)sulfonyl)benzoyl)-N-(3,5-difluorobenzyl)-D-prolinamide], 0.0606 µM; in that of `CS(=O)(=O)c1cccc(C(=O)N2C[C@@H](F)C[C@@H]2C(=O)N[C@@H](c2ccc(C(F)(F)F)c(F)c2)C2COC2)c1` [Example 273, (4S)-4-fluoro-N-((R)-(3-fluoro-4-(trifluoromethyl)phenyl)(3-oxetanyl)methyl)-1-(3-(methylsulfonyl)benzoyl)-D-prolinamide], 0.6841 µM. Then `N#CC1CN(S(=O)(=O)c2cccc(C(=O)N3CCC[C@@H]3C(=O)NCc3ccc(Cl)c(F)c3)c2)C1` [Example 64, N-(4-chloro-3-fluorobenzyl)-1-((3-((3-cyano-1-azetidinyl)sulfonyl)phenyl)carbonyl)-D-prolinamide], with 0.0744 µM.
